Patent US8940771B2, “Organic compounds” (Novartis AG, priority 2007, dated 2015)
One block for each molecule: values may come before it.

Legend:
Assay type in all cases: biochemical
[1] = target: PI3Kα (p85iSH2(461-568)-p110α(21-1068)-His, BV1075) (Homo sapiens (Human), UniProt P42336); experiment: PI3K KinaseGlo assay, PI3Kalpha; conditions: for IC50: KinaseGlo, 1 μM ATP; for Selectivity PI3Kalpha vs. PI3Kdelta: ratio of PI3Kdelta IC50 to PI3Kalpha IC50
[2] = target: PI3Kδ (p85iSH2(461-568)-p110δ(2-1044)-His, BV1060) (Homo sapiens (Human), UniProt O00329); experiment: PI3K KinaseGlo assay, PI3Kdelta; conditions: 1 μM ATP, alpha vs. delta selectivity table
Chain of PI3Kδ (p85iSH2(461-568)-p110δ(2-1044)-His, BV1060) (O00329 other isoform, or with tags, fused parts or gaps): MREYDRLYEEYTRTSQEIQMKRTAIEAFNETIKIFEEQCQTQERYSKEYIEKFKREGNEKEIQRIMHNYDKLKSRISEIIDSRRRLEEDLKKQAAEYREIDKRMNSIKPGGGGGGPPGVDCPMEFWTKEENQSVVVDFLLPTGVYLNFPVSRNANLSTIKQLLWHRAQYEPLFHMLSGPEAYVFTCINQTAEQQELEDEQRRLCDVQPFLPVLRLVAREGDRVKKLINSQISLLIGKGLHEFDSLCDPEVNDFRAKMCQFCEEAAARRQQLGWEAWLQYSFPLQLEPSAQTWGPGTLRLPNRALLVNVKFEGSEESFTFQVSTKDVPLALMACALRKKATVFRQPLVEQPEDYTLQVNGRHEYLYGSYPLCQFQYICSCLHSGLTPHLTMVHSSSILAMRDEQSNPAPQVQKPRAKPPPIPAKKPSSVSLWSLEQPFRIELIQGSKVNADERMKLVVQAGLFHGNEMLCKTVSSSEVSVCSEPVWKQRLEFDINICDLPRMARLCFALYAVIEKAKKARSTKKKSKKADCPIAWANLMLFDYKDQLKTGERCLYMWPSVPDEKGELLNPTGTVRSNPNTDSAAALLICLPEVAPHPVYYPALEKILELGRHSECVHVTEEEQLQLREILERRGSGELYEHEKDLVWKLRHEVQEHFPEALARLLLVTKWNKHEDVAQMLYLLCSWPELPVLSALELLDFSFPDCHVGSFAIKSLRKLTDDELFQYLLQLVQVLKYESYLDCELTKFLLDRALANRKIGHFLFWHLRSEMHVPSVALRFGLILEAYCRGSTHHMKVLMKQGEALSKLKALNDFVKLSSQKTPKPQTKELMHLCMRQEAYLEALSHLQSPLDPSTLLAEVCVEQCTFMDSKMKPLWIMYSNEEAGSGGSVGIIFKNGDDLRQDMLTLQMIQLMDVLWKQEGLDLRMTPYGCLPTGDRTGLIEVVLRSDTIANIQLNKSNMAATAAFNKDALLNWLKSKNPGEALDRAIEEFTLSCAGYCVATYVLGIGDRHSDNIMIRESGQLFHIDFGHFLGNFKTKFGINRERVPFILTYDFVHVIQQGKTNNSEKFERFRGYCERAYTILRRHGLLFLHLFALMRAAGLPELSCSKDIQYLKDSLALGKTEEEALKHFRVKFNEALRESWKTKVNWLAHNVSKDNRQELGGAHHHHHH

[3] = target: PI3Kγ (p110γ(Δ143-[Met144-1102])-His, BV950) (Homo sapiens (Human), UniProt P48736); experiment: PI3K KinaseGlo assay, PI3Kgamma; conditions: 1 μM ATP, four-isoform table
Chain of PI3Kγ (p110γ(Δ143-[Met144-1102])-His, BV950) (P48736 other isoform, or with tags, fused parts or gaps): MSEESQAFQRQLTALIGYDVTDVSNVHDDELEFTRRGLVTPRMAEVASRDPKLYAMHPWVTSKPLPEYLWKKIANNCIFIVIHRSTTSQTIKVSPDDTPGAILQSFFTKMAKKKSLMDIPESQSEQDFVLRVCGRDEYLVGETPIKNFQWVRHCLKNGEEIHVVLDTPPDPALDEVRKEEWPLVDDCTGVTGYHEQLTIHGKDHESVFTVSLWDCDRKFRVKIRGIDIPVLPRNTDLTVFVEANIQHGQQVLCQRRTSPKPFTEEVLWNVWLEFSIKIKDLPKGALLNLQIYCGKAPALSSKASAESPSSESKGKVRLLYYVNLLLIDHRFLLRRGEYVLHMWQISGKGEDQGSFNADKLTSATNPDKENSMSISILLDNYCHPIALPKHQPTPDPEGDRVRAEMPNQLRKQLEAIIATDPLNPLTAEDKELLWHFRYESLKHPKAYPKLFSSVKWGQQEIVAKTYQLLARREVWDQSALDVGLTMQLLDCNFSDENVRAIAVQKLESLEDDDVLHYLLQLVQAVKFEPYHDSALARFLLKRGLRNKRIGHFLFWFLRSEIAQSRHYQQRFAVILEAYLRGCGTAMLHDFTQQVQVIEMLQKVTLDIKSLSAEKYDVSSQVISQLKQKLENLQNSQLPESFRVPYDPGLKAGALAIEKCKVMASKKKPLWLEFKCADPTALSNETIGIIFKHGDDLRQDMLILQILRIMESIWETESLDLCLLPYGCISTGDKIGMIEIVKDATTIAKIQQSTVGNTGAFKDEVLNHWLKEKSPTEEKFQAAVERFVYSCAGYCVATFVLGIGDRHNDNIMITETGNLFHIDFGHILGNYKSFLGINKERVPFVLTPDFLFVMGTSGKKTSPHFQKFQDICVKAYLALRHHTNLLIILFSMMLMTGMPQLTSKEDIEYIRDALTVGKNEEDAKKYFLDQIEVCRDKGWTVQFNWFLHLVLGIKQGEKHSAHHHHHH

[4] = alpha vs. delta selectivity table

Chain of PI3Kα (p85iSH2(461-568)-p110α(21-1068)-His, BV1075) (P42336 other isoform, or with tags, fused parts or gaps): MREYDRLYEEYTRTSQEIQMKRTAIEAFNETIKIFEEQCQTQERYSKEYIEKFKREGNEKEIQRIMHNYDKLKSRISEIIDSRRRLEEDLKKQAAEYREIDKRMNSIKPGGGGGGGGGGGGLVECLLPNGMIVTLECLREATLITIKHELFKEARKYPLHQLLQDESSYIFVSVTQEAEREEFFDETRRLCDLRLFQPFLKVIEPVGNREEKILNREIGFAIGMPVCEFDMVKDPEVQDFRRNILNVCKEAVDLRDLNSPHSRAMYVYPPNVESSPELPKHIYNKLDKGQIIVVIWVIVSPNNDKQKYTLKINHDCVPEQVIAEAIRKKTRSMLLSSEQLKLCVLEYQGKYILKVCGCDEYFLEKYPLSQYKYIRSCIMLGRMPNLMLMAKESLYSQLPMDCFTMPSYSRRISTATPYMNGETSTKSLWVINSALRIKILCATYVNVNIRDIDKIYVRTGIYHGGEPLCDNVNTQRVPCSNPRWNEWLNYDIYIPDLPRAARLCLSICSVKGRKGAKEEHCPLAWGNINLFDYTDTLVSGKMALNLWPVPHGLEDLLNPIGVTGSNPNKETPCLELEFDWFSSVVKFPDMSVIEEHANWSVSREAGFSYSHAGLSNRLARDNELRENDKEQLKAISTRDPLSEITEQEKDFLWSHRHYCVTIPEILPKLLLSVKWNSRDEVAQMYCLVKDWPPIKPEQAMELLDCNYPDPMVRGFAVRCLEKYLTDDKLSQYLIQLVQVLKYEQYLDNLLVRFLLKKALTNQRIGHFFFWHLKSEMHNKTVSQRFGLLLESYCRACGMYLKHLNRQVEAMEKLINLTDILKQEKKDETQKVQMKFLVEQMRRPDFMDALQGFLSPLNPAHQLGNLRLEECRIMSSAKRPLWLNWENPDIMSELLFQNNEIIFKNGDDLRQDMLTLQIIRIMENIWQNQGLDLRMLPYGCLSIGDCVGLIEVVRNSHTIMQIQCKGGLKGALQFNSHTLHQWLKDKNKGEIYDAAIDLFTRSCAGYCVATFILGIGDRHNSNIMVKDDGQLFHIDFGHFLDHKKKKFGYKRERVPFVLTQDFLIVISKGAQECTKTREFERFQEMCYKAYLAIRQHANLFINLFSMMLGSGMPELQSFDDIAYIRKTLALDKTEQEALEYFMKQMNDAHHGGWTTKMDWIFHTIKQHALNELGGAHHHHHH

SMILES: Cc1nc(NC(=O)N2C[C@@H](F)C[C@H]2C(N)=O)sc1-c1ccnc(C(C)(C)C)n1 [Example 66]
IC50 ([1]; 10 nM enzyme, 30 mins): 40 nM | IC50 [1, 4]: 40 nM | Selectivity PI3Kalpha vs. PI3Kdelta [1]: 32-fold | IC50 [2]: 1270 nM

IC50 [1, 4]: 14 nM | Selectivity PI3Kalpha vs. PI3Kdelta [1]: 246-fold | IC50 [2]: 3450 nM
SMILES: Cc1nc(NC(=O)N2C[C@H](N(C)C)C[C@H]2C(N)=O)sc1-c1ccnc(C(C)(C)C)n1 [Example 70, (2S,4R)-4-Dimethylamino-pyrrolidine-1,2-dicarboxylic acid 2-amide 1-{[5-(2-tert-butyl-pyrimidin-4-yl)-4-methyl-thiazol-2-yl]-amide}]

IC50 [1, 4]: 15 nM | Selectivity PI3Kalpha vs. PI3Kdelta [1]: 65-fold | IC50 [2]: 974 nM
SMILES: Cc1nc(NC(=O)N2CCC[C@@]2(C)C(N)=O)sc1-c1ccnc(C(C)(C)C)n1 [Example 12, (S)-2-methyl-pyrrolidine-1,2-dicarboxylic acid 2-amide 1-{[5-(2-tert-butyl-pyrimidin-4-yl)-4-methyl-thiazol-2-yl]-amide}]

IC50 [3]: 928 nM
SMILES: Cc1nc(NC(=O)N2CCC[C@@]2(C)C(N)=O)sc1-c1csc(CC2CC2)n1 [Example 151, (S)-2-Methyl-pyrrolidine-1,2-dicarboxylic acid 2-amide 1-[(2-cyclopropylmethyl-4′-methyl-[4,5′]bithiazolyl-2′-yl)-amide]]

IC50 ([1]; 10 nM enzyme, 30 mins): 17 nM
SMILES: Cc1nc(NC(=O)N2CCC[C@@]2(C)C(N)=O)sc1-c1ccnc(C2(C#N)CC2)c1 [Example 49, S)-2-Methyl-pyrrolidine-1,2-dicarboxylic acid 2-amide 1-({5-[2-(1-cyano-cyclopropyl)-pyridin-4-yl]-4-methyl-thiazol-2-yl}-amide]

IC50 ([1]; 10 nM enzyme, 30 mins): 250 nM
SMILES: Cc1nc(NC(=O)N2CCC[C@@]2(C)C(N)=O)sc1-c1ccnc(N(C)CCN(C)C)n1 [Example 80, (S)-2-Methyl-pyrrolidine-1,2-dicarboxylic acid 2-amide 1-[(5-{2-[(2-dimethylamino-ethyl)-methyl-amino]-pyrimidin-4-yl}-4-methyl-thiazol-2-yl)-amide]]

IC50 ([1]; 10 nM enzyme, 30 mins): 140 nM
SMILES: CCN(Cc1ccccc1)c1nccc(-c2sc(NC(=O)N3CCC[C@@]3(C)C(N)=O)nc2C)n1 [Example 98]

IC50 ([1]; 10 nM enzyme, 30 mins): 8 nM
SMILES: CC(C)(c1cc(-c2cnc(NC(=O)N3CCC[C@@]3(C)C(N)=O)s2)ccn1)C(F)(F)F [Example 119, S)-2-Methyl-pyrrolidine-1,2-dicarboxylic acid 2-amide 1-({5-[2-(2,2,2-trifluoro-1,1-dimethyl-ethyl)-pyridin-4-yl}-thiazol-2-yl]-amide]

SMILES: CCCc1nccn1-c1cc(-c2sc(NC(=O)N3CC(O)CC3C(N)=O)nc2C)ccc1S(C)(=O)=O [Example 1, (2S,4R)-4-hydroxy-pyrrolidine-1,2-dicarboxylic acid 2-amide 1-({5-[4-methanesulfonyl-3-(2-propyl-imidazol-1-yl)-phenyl]-4-methyl-thiazol-2-yl}-amide)triflouroacetate]
IC50 ([1]; 10 nM enzyme, 30 mins): 170 nM

IC50 ([1]; 10 nM enzyme, 30 mins): 71 nM
SMILES: Cc1nc(NC(=O)N2CCC[C@@]2(C)C(N)=O)sc1-c1ccnc(CC2CC2)n1 [Example 110, (S)-2-Methyl-pyrrolidine-1,2-dicarboxylic acid 2-amide 1-{[5-(2-cyclopropylmethyl-pyrimidin-4-yl)-4-methyl-thiazol-2-yl]-amide}]

IC50 ([1]; 10 nM enzyme, 30 mins): 31 nM
SMILES: Cc1nc(NC(=O)N2C[C@H](O)C[C@@]2(C)C(N)=O)sc1-c1ccnc(C(C)(C)C)n1 [Example 65, (2S,4R)-4-Hydroxy-2-methyl-pyrrolidine-1,2-dicarboxylic acid 2-amide 1-{[5-(2-tert-butyl-pyrimidin-4-yl)-4-methyl-thiazol-2-yl]-amide}]
